Experimental data as given in article PMC8509398, “Proteolytic Cleavage of Bioactive Peptides and Protease-Activated Receptors in Acute and Post-Colitis” (International Journal of Molecular Sciences, 2021).
Blank lines part the entries; values can stand above or below the compound they belong to. Residues, ends and D or L forms follow the SMILES beside them.

Columns and labels:
[1] = biological target: trypsin-1 (Homo sapiens, UniProt P07477); experiment: Cleavage of peptides by purified trypsin-1, MALDI-TOF/TOF; conditions: 25 nM protease, 10 µM peptide; for Incubation time at which the first cleavage or decrease of the full-length peptide was observed, trypsin-1: 37 °C, time points 2, 5, 10, 30 min
From the text: (§1) Trypsin-like proteases included in the experiments are trypsin-1, -2 and -3, tryptase (Enzo LifeSciences), thrombin (Sigma-Aldrich) and cathepsin G (Sigma-Aldrich). Trypsin-1, -2 and -3 were produced as described by Koistinen et al. and Wu et al.. Two elastase-like enzymes, neutrophil elastase (Enzo LifeSciences, Farmingdale, NY, USA) and pancreatic elastase I (Sigma-Aldrich) were included as well. All enzymes were from human origin except for pancreatic elastase from porcine pancreas.
(§2) Reaction mixtures with purified enzymes were compiled in an identical way. Each mixture contained an equimolar concentration of protease (25 nM based on) and 10 µM peptide of interest and was incubated for 2, 5, 10 and 30 min at 37 °C. Substance P was added as the standard peptide except for the reaction mixtures with substance P or bradykinin as the peptide of interest, where angiotensin II (Bachem) was added.
(§3) The TFA mixtures were thawed on ice and desalted using C18 zip-tips (Merck Millipore®, Burlington, MA, USA) with a capacity of 5 µg protein. Retained peptide fragments were eluted directly on the MALDI target plate. Next, 0.5 µL of a 2.5 mg/mL α-cyano-4-hydroxycinnamic acid (Sigma-Aldrich) matrix solution (in 70% acetonitrile, 0.1% TFA) was spotted on top of the sample. A 6-Peptide mixture Kit (AB Sciex, Framingham, MA, USA) containing bradykinin (2–9), angiotensin I, glu1-fibrinopeptide, ACTH (1–17), ACTH (18–39) and ACTH (7–38) was diluted with matrix and spotted on the plate as well.
(§4) MS and MS/MS data for peptide fragment identification were obtained with a MALDI-TOF/TOF instrument (4800 MALDI TOF/TOF™, Applied Biosystems, Waltham, MA, USA) and instrument parameters were set using 4000 Series Explorer™ software. MS spectra were recorded in positive reflector mode in a mass range from 500 to 4000 Da and laser intensity of 4500–4800 Hz. The spectra were calibrated using the calibration mixture mentioned above to a mass tolerance of 0.1 Da. MS/MS spectra were recorded with high-energy collision-induced dissociation and the laser intensity was increased by 10%. Precursor mass m/z 1570.65 (Glu1-Fibrinopeptide from the calibration mixture) was used to calibrate the MS/MS spectra to a mass tolerance of 0.1 Da.
(§5) MS and MS/MS spectra were processed using DataExplorer™ software and the obtained output files were uploaded in the MS-PEP data analyzer (https://bioit.shinyapps.io/PARs/ accessed 10/08/2020) for peptide fragment identification. Identified fragments were confirmed using the MS/MS spectra and mMass 5.5.0 by Martin Strohalm. The relative intensities of the fragments were calculated as the ratio of the intensity of the peak of interest to the intensity of the peak of the standard peptide.

[2] = biological target: T1, trypsin-3 (Homo sapiens, UniProt P35030); experiment: Cleavage of peptides by purified trypsin-3, MALDI-TOF/TOF; conditions: 25 nM protease, 10 µM peptide
T1 sequence (P35030 1-304): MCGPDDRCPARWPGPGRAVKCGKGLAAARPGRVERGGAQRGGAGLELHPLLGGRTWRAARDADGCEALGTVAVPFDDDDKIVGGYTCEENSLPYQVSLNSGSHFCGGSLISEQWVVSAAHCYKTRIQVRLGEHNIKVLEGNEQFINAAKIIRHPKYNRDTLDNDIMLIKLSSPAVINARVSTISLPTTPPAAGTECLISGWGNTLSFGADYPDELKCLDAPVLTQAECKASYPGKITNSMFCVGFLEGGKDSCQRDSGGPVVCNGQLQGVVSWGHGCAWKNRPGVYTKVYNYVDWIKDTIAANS
From the text: as §1, §2, §3, §4, §5

[3] = biological target: tryptase (Homo sapiens, UniProt Q15661); experiment: Cleavage of peptides by purified tryptase, MALDI-TOF/TOF; conditions: 25 nM protease, 10 µM peptide
From the text: as §1, §2, §3, §4, §5

[4] = biological target: thrombin (Homo sapiens, UniProt P00734); experiment: Cleavage of peptides by purified thrombin, MALDI-TOF/TOF; conditions: 25 nM protease, 10 µM peptide; for Incubation time at which the first cleavage or decrease of the full-length peptide was observed, thrombin: 37 °C, time points 2, 5, 10, 30 min
From the text: as §1, §2, §3, §4, §5

[5] = biological target: T2, cathepsin G (Homo sapiens, UniProt P08311); experiment: Cleavage of peptides by purified cathepsin G, MALDI-TOF/TOF; conditions: 25 nM protease, 10 µM peptide, 37 °C, 2, 5, 10 and 30 min
T2 sequence (P08311 21-255): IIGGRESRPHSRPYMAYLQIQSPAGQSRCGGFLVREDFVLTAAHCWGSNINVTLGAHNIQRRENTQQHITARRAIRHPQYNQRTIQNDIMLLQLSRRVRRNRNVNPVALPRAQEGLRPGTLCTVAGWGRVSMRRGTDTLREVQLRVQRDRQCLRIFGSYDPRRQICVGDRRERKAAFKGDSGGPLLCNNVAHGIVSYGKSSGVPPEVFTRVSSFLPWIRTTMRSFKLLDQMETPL
From the text: as §1
(§6) Reaction mixtures with purified enzymes were compiled in an identical way. […] Substance P was added as the standard peptide except for the reaction mixtures with substance P or bradykinin as the peptide of interest, where angiotensin II (Bachem) was added.
as §3
as §4, with “10%.” for “10%. Precursor mass m/z 1570.65 (Glu1-Fibrinopeptide from the calibration mixture) was used to calibrate the MS/MS spectra to a mass tolerance of 0.1 Da.”
(§7) Identified fragments were confirmed using the MS/MS spectra and mMass 5.5.0 by Martin Strohalm. The relative intensities of the fragments were calculated as the ratio of the intensity of the peak of interest to the intensity of the peak of the standard peptide.

[6] = biological target: T3, neutrophil elastase (Homo sapiens, UniProt P08246); experiment: Cleavage of peptides by purified neutrophil elastase, MALDI-TOF/TOF; conditions: 25 nM protease, 10 µM peptide
T3 sequence (P08246 30-267): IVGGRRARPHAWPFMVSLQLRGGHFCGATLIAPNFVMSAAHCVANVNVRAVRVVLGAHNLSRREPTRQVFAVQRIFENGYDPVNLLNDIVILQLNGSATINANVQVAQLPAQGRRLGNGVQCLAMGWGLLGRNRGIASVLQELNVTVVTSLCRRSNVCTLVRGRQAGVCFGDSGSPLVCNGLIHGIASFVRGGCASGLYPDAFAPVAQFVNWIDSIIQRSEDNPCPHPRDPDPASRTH
From the text: as §1, §6, §3
as §4, with “10%.” for “10%. Precursor mass m/z 1570.65 (Glu1-Fibrinopeptide from the calibration mixture) was used to calibrate the MS/MS spectra to a mass tolerance of 0.1 Da.”
as §7

[7] = biological target: pancreatic elastase I (Sus scrofa, UniProt P00772); experiment: Cleavage of peptides by purified pancreatic elastase, MALDI-TOF/TOF; conditions: 25 nM protease, 10 µM peptide
From the text: as §1, §6, §3
as §4, with “10%.” for “10%. Precursor mass m/z 1570.65 (Glu1-Fibrinopeptide from the calibration mixture) was used to calibrate the MS/MS spectra to a mass tolerance of 0.1 Da.”
as §7

[8] = PAR-based peptides, 37 °C, 2, 5, 10 and 30 min
[9] = 37 °C, 2, 5, 10 and 30 min, stopped with 2% TFA
[10] = 37 °C, time points 2, 5, 10, 30 min

pancreatic elastase I, sequence (P00772 27-266): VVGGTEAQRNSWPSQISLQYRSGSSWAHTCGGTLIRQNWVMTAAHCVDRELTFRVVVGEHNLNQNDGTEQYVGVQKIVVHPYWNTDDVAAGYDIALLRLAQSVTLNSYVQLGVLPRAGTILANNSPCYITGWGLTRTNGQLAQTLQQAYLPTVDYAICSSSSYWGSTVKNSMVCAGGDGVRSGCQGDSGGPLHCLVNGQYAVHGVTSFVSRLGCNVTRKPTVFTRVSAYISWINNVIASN
tryptase, sequence (Q15661 31-275): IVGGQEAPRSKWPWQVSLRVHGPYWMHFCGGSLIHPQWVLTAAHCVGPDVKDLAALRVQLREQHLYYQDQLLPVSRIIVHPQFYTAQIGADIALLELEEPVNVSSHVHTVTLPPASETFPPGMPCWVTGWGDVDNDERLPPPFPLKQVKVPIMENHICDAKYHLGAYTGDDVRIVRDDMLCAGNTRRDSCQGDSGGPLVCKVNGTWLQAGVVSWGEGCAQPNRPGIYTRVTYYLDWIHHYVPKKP

Incubation time at which the first cleavage or decrease of the full-length peptide was observed, trypsin-1 [1]: 2 min
TL disarming (D), Trypsin-1 [1, 8]: +++ (ultrafast processing within 2 min)
TL unmasking (U), Trypsin-1 [1, 8]: +++ (ultrafast processing within 2 min)
TL disarming (D), Trypsin-3 [2, 8]: + (processing after 10 or 30 min)
TL unmasking (U), Trypsin-3 [2, 8]: −
TL disarming (D), Tryptase [3, 8]: +++ (ultrafast processing within 2 min)
TL unmasking (U), Tryptase [3, 8]: −
Incubation time at which the first cleavage or decrease of the full-length peptide was observed, thrombin [4]: 2 min
TL disarming (D), Thrombin [4, 8]: −
TL unmasking (U), Thrombin [4, 8]: +++ (ultrafast processing within 2 min)
TL disarming (D), Cathepsin G ([5]; PAR-based peptides): +++ (ultrafast processing within 2 min)
TL unmasking (U), Cathepsin G ([5]; PAR-based peptides): −
TL disarming (D), Neutrophil Elastase [6, 8]: +++ (ultrafast processing within 2 min)
TL unmasking (U), Neutrophil Elastase [6, 8]: −
TL disarming (D), Pancreatic Elastase [7, 8]: +++ (ultrafast processing within 2 min)
TL unmasking (U), Pancreatic Elastase [7, 8]: −
SMILES: CC[C@H](C)[C@H](NC(=O)[C@@H]1CCCN1C(=O)[C@H](CC(C)C)NC(=O)[C@@H](NC(=O)[C@@H]1CCCN1C(=O)[C@H](CCCCN)NC(=O)[C@H](C)NC(=O)[C@H](CC(C)C)NC(=O)[C@H](CC(N)=O)NC(=O)[C@H](CC(N)=O)NC(=O)[C@@H](NC(=O)[C@H](CC(=O)O)NC(=O)[C@H](CC(N)=O)NC(=O)[C@H](CCC(=O)O)NC(=O)[C@H](CCSC)NC(=O)CN)[C@@H](C)O)[C@@H](C)O)C(=O)N[C@@H](CCCCN)C(=O)N[C@H](C(=O)N[C@@H](Cc1ccccc1)C(=O)N[C@@H](CCCNC(=N)N)C(=O)NCC(=O)N[C@@H](C)C(=O)N1CCC[C@H]1C(=O)N1CCC[C@H]1C(=O)N[C@@H](CC(N)=O)C(=O)N[C@@H](CO)C(=O)N[C@@H](Cc1ccccc1)C(=O)N[C@@H](CCC(=O)O)C(N)=O)[C@@H](C)O [PAR3-based] (H-GMENDTNNLAKPTLPIKTFRGAPPNSFE-NH2)

SMILES: CC[C@H](C)[C@H](NC(=O)[C@H](CO)NC(=O)[C@H](CC(N)=O)NC(=O)[C@H](CC(C)C)NC(=O)[C@H](Cc1ccc(O)cc1)NC(=O)[C@H](CCCCN)NC(=O)[C@H](CCCCN)NC(=O)[C@@H](NC(=O)[C@H](C)NC(=O)[C@H](CCSC)NC(=O)[C@H](CCC(N)=O)NC(=O)[C@H](CCCCN)NC(=O)[C@H](CCCN=C(N)N)NC(=O)[C@H](CC(C)C)NC(=O)[C@H](CCCN=C(N)N)NC(=O)[C@@H](NC(=O)[C@H](Cc1ccc(O)cc1)NC(=O)[C@H](CC(N)=O)NC(=O)[C@H](CC(=O)O)NC(=O)[C@@H](NC(=O)[C@H](Cc1ccccc1)NC(=O)[C@@H](NC(=O)[C@H](C)NC(=O)[C@H](CC(=O)O)NC(=O)[C@H](CO)NC(=O)[C@@H](N)Cc1c[nH]cn1)C(C)C)[C@@H](C)O)[C@@H](C)O)C(C)C)C(=O)N[C@@H](CC(C)C)C(=O)N[C@@H](CC(N)=O)C(N)=O [VIP, Vasoactive intestinal peptide]
Efficiency of the first cleavage in the peptide, Trypsin-1 [1, 9]: +++ (ultrafast processing within 2 min)
Incubation time at which the first cleavage or decrease of the full-length peptide was observed, trypsin-1 [1]: 2 min
Efficiency of the first cleavage in the peptide, Trypsin-3 [2, 9]: +++ (ultrafast processing within 2 min)
Incubation time at which the first cleavage or decrease of the full-length peptide was observed, trypsin-3 [2, 10]: 2 min
Efficiency of the first cleavage in the peptide, Tryptase [3, 9]: +++ (ultrafast processing within 2 min)
Incubation time at which the first cleavage or decrease of the full-length peptide was observed, tryptase [3, 10]: 2 min
Efficiency of the first cleavage in the peptide, Thrombin [4, 9]: −
Incubation time at which the first cleavage or decrease of the full-length peptide was observed, thrombin [4]: > 30 min
Efficiency of the first cleavage in the peptide, Cathepsin G ([5]; stopped with 2% TFA): +++ (ultrafast processing within 2 min)
Efficiency of the first cleavage in the peptide, Neutrophil Elastase [6, 9]: +++ (ultrafast processing within 2 min)
Incubation time at which the first cleavage or decrease of the full-length peptide was observed, neutrophil elastase [6, 10]: 2 min
Efficiency of the first cleavage in the peptide, Pancreatic Elastase [7, 9]: +++ (ultrafast processing within 2 min)
Incubation time at which the first cleavage or decrease of the full-length peptide was observed, pancreatic elastase [7, 10]: 2 min
